One data set deals with T1, PSMA (Homo sapiens, UniProt Q04609).
T1 construct: endogenous in cells; host or cells: LNCaP cells (ATCC via Cedarlane)
Kind of data set: In vitro PSMA competition binding assay ([^18F]DCFPyL displacement on LNCaP cells). To be noted: radioligand [^18F]DCFPyL, n = 3. As for the experimental part:
The binding affinities of Ga-AV01017, Ga-AV01030, Ga-AV01038, Ga-HTK03041, and Ga-FAPI-04 to PSMA were measured by a cell-based binding assay using PSMA-expressing LNCaP prostate cancer cells. The nonradioactive Ga-complexed standards, except Ga-FAPI-04, inhibited the binding of [^18F]DCFPyL to LNCaP cells in a dose-dependent manner (Figure 3A).
The PSMA binding assays were conducted following previously published procedures using LNCaP cells and [^18F]DCFPyL as the radioligand [34, 42, 43]. Data analyses of IC50 were performed using the nonlinear regression algorithm of GraphPad Prism 7 (San Diego, CA, USA) software.

For data set [1], the system named is PSMA-expressing LNCaP tumor xenografts. Briefly: Ex vivo biodistribution in LNCaP tumor-bearing mice. To be noted: 1 h post injection, range over LNCaP and HEK293T:hFAP tumor-bearing mice.
The next data set addresses T2, recombinant human FAP (Homo sapiens, UniProt Q12884).
T2 construct: purchased Biolegend
T2 sequence (Q12884 1-760): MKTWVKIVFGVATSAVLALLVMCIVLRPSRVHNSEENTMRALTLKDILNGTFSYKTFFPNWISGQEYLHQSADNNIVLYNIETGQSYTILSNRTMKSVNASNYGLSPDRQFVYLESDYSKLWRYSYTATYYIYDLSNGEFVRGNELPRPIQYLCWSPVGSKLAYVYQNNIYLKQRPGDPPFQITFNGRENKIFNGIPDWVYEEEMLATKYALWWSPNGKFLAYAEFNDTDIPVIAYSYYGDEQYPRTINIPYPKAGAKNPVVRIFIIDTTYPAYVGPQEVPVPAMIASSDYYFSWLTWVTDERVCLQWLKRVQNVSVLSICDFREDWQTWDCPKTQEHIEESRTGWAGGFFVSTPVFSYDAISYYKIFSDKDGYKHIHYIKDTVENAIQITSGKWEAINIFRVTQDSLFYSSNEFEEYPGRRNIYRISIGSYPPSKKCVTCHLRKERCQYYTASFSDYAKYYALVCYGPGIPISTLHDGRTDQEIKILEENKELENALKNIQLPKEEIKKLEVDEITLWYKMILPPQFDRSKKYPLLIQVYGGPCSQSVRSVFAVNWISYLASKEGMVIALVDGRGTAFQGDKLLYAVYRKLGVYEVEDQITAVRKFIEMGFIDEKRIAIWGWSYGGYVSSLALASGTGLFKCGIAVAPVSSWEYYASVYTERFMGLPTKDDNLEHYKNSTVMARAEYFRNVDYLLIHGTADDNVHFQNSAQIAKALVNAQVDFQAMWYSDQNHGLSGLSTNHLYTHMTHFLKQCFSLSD
Briefly: In vitro FAP fluorescence enzyme-inhibition assay (Suc-Gly-Pro-AMC substrate). Type of data set: biochemical. To be noted: n = 3. As for the experimental part:
The binding affinities of Ga-AV01017, Ga-AV01030, Ga-AV01038, Ga-HTK03041, and Ga-FAPI-04 to human FAP were measured by an enzyme-inhibition assay using Suc-Gly-Pro-AMC as the FAP substrate. The human FAP enzymatic activity on the substrate was inhibited by Ga-complexed standards in a dose-dependent manner (Figure 3B).
The half maximal inhibitory concentration (IC50) values of the tested compounds for FAP were measured by in vitro enzymatic assay. The recombinant human FAP (Biolegend; 0.2 µg/mL, 50 µL) was added into a costar 96-well plate. PBS and varied concentrations (0.2 pM to 2 µM) of tested nonradioactive Ga-complexed standards were added to each well (in duplicate) containing the recombinant human FAP. After being incubated for 30 min at 37 °C, 50 µL of Suc-Gly-Pro-AMC (2 µM, Bachem) was added to each well. The fluorescent signals were acquired at 15, 30, 45, and 60 min using a FlexStation 3 Multi-Mode Microplate Reader with excitation at 380 nm and emission at 460 nm. The IC50(FAP) was calculated using a “nonlinear fit model” built-in model in GraphPad Prism 7.02 software

T1 sequence (Q04609 whole entry): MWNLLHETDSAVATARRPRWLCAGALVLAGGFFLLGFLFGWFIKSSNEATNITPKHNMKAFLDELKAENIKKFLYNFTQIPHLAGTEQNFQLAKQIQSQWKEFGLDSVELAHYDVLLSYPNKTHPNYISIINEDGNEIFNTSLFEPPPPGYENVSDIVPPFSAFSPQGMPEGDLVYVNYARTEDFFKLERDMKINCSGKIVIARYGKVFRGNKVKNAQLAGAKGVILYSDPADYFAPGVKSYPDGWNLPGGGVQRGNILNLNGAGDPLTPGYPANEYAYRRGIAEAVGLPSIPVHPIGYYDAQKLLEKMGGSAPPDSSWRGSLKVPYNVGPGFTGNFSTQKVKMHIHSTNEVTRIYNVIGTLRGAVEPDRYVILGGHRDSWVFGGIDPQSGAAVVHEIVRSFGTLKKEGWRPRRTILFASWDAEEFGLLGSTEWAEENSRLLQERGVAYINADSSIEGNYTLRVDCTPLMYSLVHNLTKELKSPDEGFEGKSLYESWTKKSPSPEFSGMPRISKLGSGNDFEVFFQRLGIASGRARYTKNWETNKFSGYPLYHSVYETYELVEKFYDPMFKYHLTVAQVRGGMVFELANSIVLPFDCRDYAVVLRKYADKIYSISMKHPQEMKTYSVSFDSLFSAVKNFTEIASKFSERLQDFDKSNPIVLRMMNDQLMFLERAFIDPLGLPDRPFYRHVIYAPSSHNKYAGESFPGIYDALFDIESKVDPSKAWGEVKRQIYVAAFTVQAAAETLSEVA

As usually defined, the IC50 is the point on the concentration scale where inhibition reaches its midpoint. Take `N#C[C@@H]1CC(F)(F)CN1C(=O)CNC(=O)c1ccnc2ccc(-c3cn(CC(=O)N[C@@H](CCCCNC(=O)CN4CCN(CC(=O)[O-])CCN(CC(=O)[O-])CCN(CC(=O)[O-])CC4)C(=O)NCC(=O)NC[C@H]4CC[C@H](C(=O)N[C@@H](Cc5c6ccccc6cc6ccccc56)C(=O)NCCCC[C@H](NC(=O)N[C@@H](CCC(=O)O)C(=O)O)C(=O)O)CC4)nn3)cc12.[Ga+3]` [Ga-AV01030]: the IC50 is 71.6 ± 23 nM at PSMA and 2.74 ± 0.33 nM on recombinant human FAP. Also, the “Blood uptake values (range over both tumor models)” value in data set [1] is 5.68–5.75 %ID/g.

Source of the values: paper PMC9921851, “Synthesis and Preclinical Evaluation of Three Novel ^68Ga-Labeled Bispecific PSMA/FAP-Targeting Tracers for Prostate Cancer Imaging” (Molecules, 2023).
